Test results: US9551722B2, “Amyloid binding agents” (The Regents of the University of California, priority 2009, dated 2017)
Like-named read-outs stand apart in the source and are kept apart here.

Experiments:
[1] = target: T1, aggregated Aβ42 peptides (Homo sapiens, UniProt P05067); assay: Apparent binding constant (Kd) of probes 27-31, 33 by fluorescence intensity vs concentration; conditions: probe 1.25, 2.5, 5.0, 10 μM in nano-pure water, 5 μM pre-aggregated Aβ42
T1 construct: preaggregated Aβ(1-42) peptides
T1 sequence (P05067 672-713 limits assumed): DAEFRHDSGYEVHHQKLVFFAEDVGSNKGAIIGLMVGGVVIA
Description: We also measured the apparent binding constants (Kd) of the probes to aggregated Aβ42 peptides. The fluorescent intensity of each probe was measured in concentrations of 1.25, 2.5, 5.0 and 10 μM in nano-pure water, mixed with 5 μM of the pre-aggregated Aβ42 peptides. Zhao, X.; Yang, J., ACS Chem. Neurosc. 1, (10), 655-660. […] On the other hand, a decrease of the Kd value was observed upon chemically altering the electron donor of the ANCA scaffold. […] FIGS. 10A-F show plots of the fluorescence intensity (at λ=525 nm) of compounds 27-31 and […], respectively, as a function of the concentration in the presence of aggregated Aβ42 peptides (5 μM) in solution.

[2] = target: T2, aggregated Aβ(1-42) peptides (Homo sapiens, UniProt P05067); assay: Fluorescence of probes 27-31, 33 before and after mixing with aggregated Aβ42; type: binding; conditions: 4 μM probe; for Em. max (nm) after / Exc. max (nm) after / Fold increase (emission intensity after binding): 5 μM aggregated Aβ(1-42); for Em. max (nm) before / Exc. max (nm) before: nano-pure water (5% DMSO), without Aβ
T2 construct: preaggregated Aβ(1-42) peptides
T2 sequence (P05067 672-713 limits assumed): as above
Description: Aggregated Aβ peptide was prepared by dissolving Aβ(1-42) in PBS pH 7.4 to a final concentration of 100 μM. This solution was magnetically stirred at 1200 rpm for 3 days at room temperature. The 100 μM Aβ(1-42) stock solution in PBS was aliquoted and frozen at −10° C. for up to 4 weeks without noticeable change in its property. 15 μL of the pre-aggregated Aβ(1-42) was added to 285 μL of the probe (5% DMSO in nano-pure water) to attain a final concentration of 5 μM Aβ(1-42) and 4 μM of the probe. The solution was transferred to a […] cuvette and the fluorescent measured. FIGS. 9A-F show fluorescence excitation spectra of Cmpds 27-31 and 33, respectively.
LeVine III, H., Protein Sci. 1993, 2, (3), 404-410. Along these lines, we compared the fluorescent properties of 27-31 or 33 in aqueous solution with or without the presence of aggregated Aβ42 peptides. Specifically, we measured the fluorescent properties of each dye at 4 μM concentration in nano pure water, before and after mixing with aggregated Aβ42 peptide (final concentration peptide=5 μM). As it is shown in table 5, in all cases we observed a significant increase (3 to 9-fold) in the intensity of the emission spectra of the probes upon association with the aggregated amyloid peptides. This intensity increase was also accompanied with a blue shift in the emission spectra of around 5-50 nm. […] FIG. 9C provides a representative example of the fluorescent properties of compound 29.

[3] = system: amyloid plaques in human tissue from AD cases; assay: Fluorescence imaging of amyloid plaques in tissue sections; conditions: frozen AD tissue sections, probe solution 30 min, washed with water
Description: FIGS. 11A-F depict fluorescence images of amyloid plaques in human tissue from AD cases. After the frozen tissue was sectioned and mounted to a glass slide, the tissue was exposed to a solution containing a fluorescent probe for 30 min. The sample was washed with water to eliminate non-specific staining of the tissue, and imaged using an inverted epi-fluorescence microscope. The images reveal the location of plaques that were stained with A) compound 27, B) compound 28, C) compound 29, D) compound 30, E) compound 31, or F) compound 33.

| Kd ([1]; read-out: Kd) | Em. max (nm) after [2] | Exc. max (nm) after [2] | Fold increase (emission intensity after binding) [2] | Em. max (nm) before [2] | Exc. max (nm) before [2] | Kd [1] | SMILES | Staining of amyloid plaques (fluorescence image) [3] |
| --- | --- | --- | --- | --- | --- | --- | --- | --- |
| 4.6 µM | 530 nm | 385 nm | 4.9 fold | 580 nm | 400 nm | – | COCCOCCOCCOC(=O)/C(C#N)=C/c1ccc2cc(N3CCN(C)CC3)ccc2c1 [Compound 28, (E)-2-(2-(2-methoxyethoxyl)ethoxy)ethyl 2-cyano-3-(2-(4-methylpiperazin-1-yl)napthalen-6-yl) acrylate] | stained |
| 1.4 µM | – | – | – | – | – | highest affinity | COCCOCCOCCOC(=O)/C(C#N)=C/c1ccc2cc(N3CCCCC3)ccc2c1 [Compound 27, (E)-2-(2-(2-methoxyethoxyl)ethoxy)ethyl 2-cyano-3-(2-(piperidin-1-yl)napthalen-6-yl)acrylate] | – |
| 13.8 µM | 525 nm | 380 nm | 5.1 fold | 530 nm | 400 nm | – | COCCOCCOCCOC(=O)/C(C#N)=C/c1ccc2cc(N3CCOCC3)ccc2c1 [Compound 29, (E)-2-(2-(2-methoxyethoxyl)ethoxy)ethyl 2-cyano-3-(2-morpholinonapthalen-6-yl)acrylate] | stained |
| 1.6 µM | – | – | – | – | – | highest affinity | COCCOCCOCCOCCOC(=O)/C(C#N)=C/c1ccc2cc(N3CCCCC3)ccc2c1 [Compound 31, (E)-2-(2-(2-(2-methoxyethoxyl)ethoxy)ethoxy)ethyl 2-cyano-3-(2-(piperidin-1-yl)napthalen-6-yl) acrylate] | – |
| 6.7 µM | 540 nm | 430 nm | 2.9 fold | 570 nm | 430 nm | – | COCCOCCOCCOC(=O)/C(C#N)=C/c1ccc2cc(NCCN3CCOCC3)ccc2c1 [Compound 30, (E)-2-(2-(2-methoxyethoxyl)ethoxy)ethyl 3-(2-(2-morpholinoethylamino)naphthalen-6-yl)-2-cyano acrylate] | stained |
| 1.6 µM | 535 nm | 410 nm | 7.2 fold | 540 nm | 410 nm | highest affinity | N#C/C(=C\c1ccc2cc(N3CCCCC3)ccc2c1)C(=O)OCC(O)CO (stereo not drawn) [Compound 33, (E)-2,3-dihydroxypropyl 2-cyano-3-(2-(piperidin-1-yl)naphthalene-6-yl)acrylate] | stained |
